In ChEMBL document CHEMBL3616461, “Design, synthesis and biological evaluation of novel pyrazolo-pyrimidinones as DPP-IV inhibitors in diabetes” (Bioorg Med Chem Lett, 2015):

Columns and labels:
Rattus norvegicus [1] = experiment: Antidiabetic activity in high-fat-diet and low dose streptozotocin-induced diabetic Wistar rat assessed as blood glucose level at 10 mg/kg, po after 15 days (reference value: 515 mg/dl); format: functional
[2] = Cytotoxicity against rat macrophages by MTS/PMS assay; format: cell-based; conditions: macrophage
Dipeptidyl peptidase 4 = Dipeptidyl peptidase 4 (Homo sapiens, UniProt P27487); experiment: Inhibition of human recombinant DPP-4 using Gly-pro-p-nitroanilide as substrate assessed as formation of p-nitroaniline after 30 mins by colorimetric assay
Rattus norvegicus [3] = experiment: Antidiabetic activity in high-fat-diet and low dose streptozotocin-induced diabetic Wistar rat assessed as blood glucose level at 50 mg/kg, po after 15 days (reference value: 515 mg/dl); format: functional

Sequence of Dipeptidyl peptidase 4 (P27487 whole entry): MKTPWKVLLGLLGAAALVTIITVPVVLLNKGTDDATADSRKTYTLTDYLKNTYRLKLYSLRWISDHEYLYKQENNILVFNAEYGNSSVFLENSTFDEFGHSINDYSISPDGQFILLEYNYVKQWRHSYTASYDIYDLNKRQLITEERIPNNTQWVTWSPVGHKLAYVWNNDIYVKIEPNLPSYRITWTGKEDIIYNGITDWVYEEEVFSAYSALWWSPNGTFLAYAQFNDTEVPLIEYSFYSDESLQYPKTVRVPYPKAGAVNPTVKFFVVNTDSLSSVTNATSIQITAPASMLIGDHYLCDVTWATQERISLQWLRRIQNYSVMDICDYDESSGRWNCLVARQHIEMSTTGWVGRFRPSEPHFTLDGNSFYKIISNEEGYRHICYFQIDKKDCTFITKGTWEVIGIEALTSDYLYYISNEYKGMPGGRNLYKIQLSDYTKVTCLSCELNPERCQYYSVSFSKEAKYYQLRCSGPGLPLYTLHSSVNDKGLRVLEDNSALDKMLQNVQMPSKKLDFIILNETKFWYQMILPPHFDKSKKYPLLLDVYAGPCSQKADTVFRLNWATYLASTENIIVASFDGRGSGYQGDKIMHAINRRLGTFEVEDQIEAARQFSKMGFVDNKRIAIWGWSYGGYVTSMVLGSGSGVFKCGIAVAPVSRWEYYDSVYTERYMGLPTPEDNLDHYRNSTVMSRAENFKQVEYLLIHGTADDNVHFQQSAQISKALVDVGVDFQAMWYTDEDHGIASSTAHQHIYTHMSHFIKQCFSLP

SMILES | IC50 (Dipeptidyl peptidase 4) | Activity (Rattus norvegicus [1]) | Activity [2] | Activity (Rattus norvegicus [3])
N[C@@H](CC(=O)N1CCn2c(nnc2C(F)(F)F)C1)Cc1cc(F)c(F)cc1F [SITAGLIPTIN] | – | 136.4 mg/dL | Non-toxic | –
Cc1cc(C)c(-n2c(C)nc3c(cnn3-c3ccccc3)c2=O)c(C)c1 | – | – | Non-toxic | 162.6 mg/dL
COc1ccc(-n2ncc3c(=O)n(-c4cc(C)ccn4)c(C)nc32)cc1 | – | – | Non-toxic | –
Cc1ccnc(-n2c(C)nc3c(cnn3-c3ccccc3)c2=O)c1 | – | – | Non-toxic | 198.5 mg/dL
CCOC(=O)c1sc(-n2c(C)nc3c(cnn3-c3ccccc3)c2=O)c(C(=O)OCC)c1C | Not Active | – | Non-toxic | –
COc1ccc(-n2ncc3c(=O)n(-c4nc(-c5ccc(Cl)cc5)cs4)c(C)nc32)cc1 | – | – | Non-toxic | –
CC(=O)Nc1c(C(=O)Nc2ccccn2)cnn1-c1ccccc1 | Not Active | – | Non-toxic | –
CCOC(=O)c1sc(-n2c(C)nc3c(cnn3-c3ccc(OC)cc3)c2=O)c(C(=O)OCC)c1C | Not Active | – | Non-toxic | –
CC(=O)Nc1c(C(=O)Nc2ccc(Br)cn2)cnn1-c1ccccc1 | Not Active | – | Non-toxic | –
Cc1nc2c(cnn2-c2ccccc2)c(=O)n1-c1ncccn1 | – | – | Non-toxic | –
O=C(Nc1ccc(Cl)cc1)c1cnn(-c2ccccc2)c1NC(=O)C(F)(F)F | Not Active | – | Non-toxic | –
Cc1nc2c(cnn2-c2ccccc2)c(=O)n1-c1ccc(Br)cn1 | – | – | Non-toxic | –
CC(=O)Nc1c(C(=O)Nc2nc(-c3ccc(Cl)cc3)cs2)cnn1-c1ccccc1 | Not Active | – | Non-toxic | –
Cc1nc2c(cnn2-c2ccccc2)c(=O)n1-c1ccccn1 | – | – | Non-toxic | –
O=C(Nc1ccc(F)cc1)c1cnn(-c2ccccc2)c1NC(=O)C(F)(F)F | – | – | Non-toxic | 193.2 mg/dL

Continued, in another order:

IC50 (Dipeptidyl peptidase 4) | SMILES | Activity (Rattus norvegicus [1]) | Activity [2] | Activity (Rattus norvegicus [3])
Not Active | Cc1nc2c(cnn2-c2ccccc2)c(=O)n1-c1ccccc1 | – | Non-toxic | –
Not Active | Cc1nc2c(cnn2-c2ccccc2)c(=O)n1-c1ccc(F)cc1 | – | Non-toxic | –
Not Active | COc1ccc(-n2ncc3c(=O)n(-c4ccccn4)c(C)nc32)cc1 | – | Non-toxic | –
Not Active | Cc1nc2c(cnn2-c2ccccc2)c(=O)n1-c1ccc(F)cc1F | – | Non-toxic | –
Not Active | COc1ccc(-n2ncc3c(=O)n(-c4ccc(F)cc4)c(C)nc32)cc1 | – | Non-toxic | –
Not Active | Cc1nc2c(cnn2-c2ccccc2)c(=O)n1Cc1ccccc1 | – | Non-toxic | –
Not Active | Cc1nc2c(cnn2-c2ccccc2)c(=O)n1-c1ccc([N+](=O)[O-])cn1 | – | Non-toxic | –
Not Active | COc1ccc(-n2ncc3c(=O)n(-c4ccc([N+](=O)[O-])cn4)c(C)nc32)cc1 | – | Non-toxic | –
Not Active | Cc1nc2c(cnn2-c2ccccc2)c(=O)n1-c1cccc(Cl)c1 | – | Non-toxic | –
Not Active | CCc1ccc(-n2c(C)nc3c(cnn3-c3ccccc3)c2=O)cc1 | – | Non-toxic | –
Not Active | COc1ccc(-n2ncc3c(=O)n(-c4ccc(Br)cn4)c(C)nc32)cc1 | – | Non-toxic | –
